Data from ChEMBL document CHEMBL1743341, “Cytochrome p450 enzymes mechanism based inhibitors: common sub-structures and reactivity” (Curr Drug Metab, 2005).
pKi: −log10 of the molar value. “Also recorded” adds a separate entry of the source.

Experiments:
[1] = molecular target: T1, Cytochrome P450 2C11 (Rattus norvegicus, UniProt P08683); experiment: Mechanism based inhibition of rat cytochrome P450 CYP2C11 measured by 2-alpha and 16-alpha hydroxylation of testosterone; type: ADME
T1 sequence (P08683 whole entry): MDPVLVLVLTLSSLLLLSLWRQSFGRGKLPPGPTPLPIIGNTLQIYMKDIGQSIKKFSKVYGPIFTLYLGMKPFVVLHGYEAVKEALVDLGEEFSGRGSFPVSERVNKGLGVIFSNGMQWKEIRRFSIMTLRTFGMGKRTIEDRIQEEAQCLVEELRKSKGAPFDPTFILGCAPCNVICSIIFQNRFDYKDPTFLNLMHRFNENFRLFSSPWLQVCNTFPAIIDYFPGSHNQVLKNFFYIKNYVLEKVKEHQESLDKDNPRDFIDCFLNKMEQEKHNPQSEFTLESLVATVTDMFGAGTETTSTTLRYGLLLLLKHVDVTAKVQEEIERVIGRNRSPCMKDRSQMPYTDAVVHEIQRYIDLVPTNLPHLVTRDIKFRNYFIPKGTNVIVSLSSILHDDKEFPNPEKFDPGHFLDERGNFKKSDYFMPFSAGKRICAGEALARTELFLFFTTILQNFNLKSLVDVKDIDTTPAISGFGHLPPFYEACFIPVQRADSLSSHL

[2] = molecular target: T2, Cytochrome P450 3A4 (Homo sapiens, UniProt P08684); experiment: Mechanism based inhibition of human cytochrome P450 3A4 measured by nifedipine oxidation, omeprazole 3-hydroxylation and omeprazole sulfoxydation; type: ADME
T2 sequence (P08684 whole entry): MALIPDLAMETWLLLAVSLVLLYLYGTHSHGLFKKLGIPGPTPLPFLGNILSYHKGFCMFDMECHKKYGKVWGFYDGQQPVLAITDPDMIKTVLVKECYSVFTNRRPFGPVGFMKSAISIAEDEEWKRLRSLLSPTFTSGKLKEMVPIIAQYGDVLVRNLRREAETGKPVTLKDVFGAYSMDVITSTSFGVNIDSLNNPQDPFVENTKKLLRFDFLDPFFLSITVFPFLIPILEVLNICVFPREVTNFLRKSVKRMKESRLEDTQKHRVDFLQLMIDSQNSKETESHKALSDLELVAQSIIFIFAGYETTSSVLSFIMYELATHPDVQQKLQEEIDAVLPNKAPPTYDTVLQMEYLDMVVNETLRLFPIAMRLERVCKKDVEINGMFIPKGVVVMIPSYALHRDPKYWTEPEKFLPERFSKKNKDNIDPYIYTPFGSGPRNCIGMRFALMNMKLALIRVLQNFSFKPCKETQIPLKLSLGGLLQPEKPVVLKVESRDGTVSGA

[3] = molecular target: T2, Cytochrome P450 3A4; experiment: Mechanism based inhibition of human cytochrome P450 3A4 measured by testosterone 6-beta hydroxylation; type: ADME
[4] = molecular target: Cytochrome P450 2C9 (Homo sapiens, UniProt P11712); experiment: Mechanism based inhibition of human cytochrome P450 2C9 measured by diclofenac 4-hydroxylation; type: ADME
Chain of Cytochrome P450 2C9 (P11712 whole entry): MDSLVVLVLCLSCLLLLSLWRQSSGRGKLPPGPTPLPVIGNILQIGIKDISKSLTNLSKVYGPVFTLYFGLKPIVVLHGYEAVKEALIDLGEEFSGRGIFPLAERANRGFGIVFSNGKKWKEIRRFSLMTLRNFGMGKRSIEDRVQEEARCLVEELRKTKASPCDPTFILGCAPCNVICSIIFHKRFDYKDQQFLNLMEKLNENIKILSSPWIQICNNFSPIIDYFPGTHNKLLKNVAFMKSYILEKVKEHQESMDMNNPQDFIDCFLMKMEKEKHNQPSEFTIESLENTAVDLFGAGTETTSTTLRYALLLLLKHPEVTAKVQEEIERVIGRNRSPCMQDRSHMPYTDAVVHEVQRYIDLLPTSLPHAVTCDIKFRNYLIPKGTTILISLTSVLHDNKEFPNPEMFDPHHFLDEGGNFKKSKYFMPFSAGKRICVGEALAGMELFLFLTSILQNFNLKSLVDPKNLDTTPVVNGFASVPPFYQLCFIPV

[5] = molecular target: Cytochrome P450 2D6 (Homo sapiens, UniProt P10635); experiment: Mechanism based inhibition of human cytochrome P450 2D6 measured by […] 1'-hydroxylation; type: ADME
Chain of Cytochrome P450 2D6 (P10635 whole entry): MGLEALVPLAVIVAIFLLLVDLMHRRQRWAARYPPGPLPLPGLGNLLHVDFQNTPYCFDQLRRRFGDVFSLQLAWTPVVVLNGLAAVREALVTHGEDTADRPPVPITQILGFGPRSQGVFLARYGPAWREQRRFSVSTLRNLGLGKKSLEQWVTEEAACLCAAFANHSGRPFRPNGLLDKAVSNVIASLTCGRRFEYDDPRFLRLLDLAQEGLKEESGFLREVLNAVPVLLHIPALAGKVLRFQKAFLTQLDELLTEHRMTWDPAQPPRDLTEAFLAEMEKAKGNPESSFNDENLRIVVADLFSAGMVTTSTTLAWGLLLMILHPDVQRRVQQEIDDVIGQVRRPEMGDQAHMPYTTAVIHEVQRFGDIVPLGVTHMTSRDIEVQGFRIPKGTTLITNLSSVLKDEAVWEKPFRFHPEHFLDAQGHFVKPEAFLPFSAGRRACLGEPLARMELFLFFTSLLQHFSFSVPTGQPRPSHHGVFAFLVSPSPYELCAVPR

[6] = molecular target: T3, Cytochrome P450 2C8 (Homo sapiens, UniProt P10632)
T3 sequence (P10632 whole entry): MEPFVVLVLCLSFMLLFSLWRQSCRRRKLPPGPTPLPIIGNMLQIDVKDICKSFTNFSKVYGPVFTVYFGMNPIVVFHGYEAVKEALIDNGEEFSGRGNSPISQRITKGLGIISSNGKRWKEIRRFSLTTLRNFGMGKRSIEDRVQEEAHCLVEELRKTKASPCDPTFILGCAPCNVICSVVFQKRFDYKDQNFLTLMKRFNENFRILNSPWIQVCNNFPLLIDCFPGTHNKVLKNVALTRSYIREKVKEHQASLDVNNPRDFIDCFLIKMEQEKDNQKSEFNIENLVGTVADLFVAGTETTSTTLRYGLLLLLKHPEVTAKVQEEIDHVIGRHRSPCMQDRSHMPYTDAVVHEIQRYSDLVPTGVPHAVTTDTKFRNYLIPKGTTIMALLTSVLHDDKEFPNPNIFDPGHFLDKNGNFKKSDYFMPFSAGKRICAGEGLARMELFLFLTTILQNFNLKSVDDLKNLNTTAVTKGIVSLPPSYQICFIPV
Description: (§3) Mechanism based inhibition of human cytochrome P450 2C8 measured by paclitaxel hydroxylation using a recombinant system

[7] = molecular target: T4, CYP2C8 (Homo sapiens, UniProt P10632); experiment: in vitro; settings: recombinant CYP2C8, probe paclitaxel
T4 sequence (P10632 whole entry): T3 sequence (P10632 whole entry)
Description: as §3

[8] = molecular target: T5, CYP2B6 (Homo sapiens, UniProt P20813); experiment: (§1) Mechanism based inhibition of human cytochrome P450 2B6; type: ADME; settings: human
T5 sequence (P20813 whole entry): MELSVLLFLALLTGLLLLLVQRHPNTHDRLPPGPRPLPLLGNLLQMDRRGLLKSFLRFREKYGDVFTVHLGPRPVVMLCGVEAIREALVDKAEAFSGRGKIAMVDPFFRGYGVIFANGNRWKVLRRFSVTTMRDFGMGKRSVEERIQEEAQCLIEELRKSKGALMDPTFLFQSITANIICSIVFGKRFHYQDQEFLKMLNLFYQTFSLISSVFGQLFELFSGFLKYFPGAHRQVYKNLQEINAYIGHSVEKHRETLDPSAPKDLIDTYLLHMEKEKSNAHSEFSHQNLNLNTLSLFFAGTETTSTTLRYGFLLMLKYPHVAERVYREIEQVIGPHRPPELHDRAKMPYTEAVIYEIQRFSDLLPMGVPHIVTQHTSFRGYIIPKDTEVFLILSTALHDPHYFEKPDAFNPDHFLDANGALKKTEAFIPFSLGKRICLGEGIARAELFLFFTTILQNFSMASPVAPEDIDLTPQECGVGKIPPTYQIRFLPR

[9] = molecular target: T6, Cytochrome P450 2B6 (Homo sapiens, UniProt P20813); experiment: as §1; type: ADME
T6 sequence (P20813 whole entry): T5 sequence (P20813 whole entry)

[10] = molecular target: T7, Cytochrome P450 2B1 (Rattus norvegicus, UniProt P00176); experiment: (§2) Mechanism based inhibition of rat cytochrome P450 CYP2B1 measured by 7-EFC O-deethylation activity; type: ADME
T7 sequence (P00176 whole entry): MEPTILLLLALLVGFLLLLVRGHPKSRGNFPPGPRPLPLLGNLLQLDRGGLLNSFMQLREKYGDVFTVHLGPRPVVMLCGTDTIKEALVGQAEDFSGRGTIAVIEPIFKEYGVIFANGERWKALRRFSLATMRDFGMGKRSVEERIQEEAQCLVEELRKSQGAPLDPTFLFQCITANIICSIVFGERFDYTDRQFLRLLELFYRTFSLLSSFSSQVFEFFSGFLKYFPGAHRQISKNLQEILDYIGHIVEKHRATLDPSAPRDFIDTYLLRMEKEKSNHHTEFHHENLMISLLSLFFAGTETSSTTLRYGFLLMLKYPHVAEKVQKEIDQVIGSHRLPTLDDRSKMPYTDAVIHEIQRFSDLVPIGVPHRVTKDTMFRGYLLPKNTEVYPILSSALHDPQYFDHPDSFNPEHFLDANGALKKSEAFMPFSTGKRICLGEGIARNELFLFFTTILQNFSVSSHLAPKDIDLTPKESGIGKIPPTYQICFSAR

[11] = molecular target: T7, Cytochrome P450 2B1; experiment: Mechanism based inhibition of rat cytochrome P450 CYP2B1; type: ADME; settings: rat
[12] = molecular target: T8, CYP2B1 (Rattus norvegicus, UniProt P00176); experiment: as §2; type: ADME; settings: rat, probe 7-EFC (O-deethylation)
T8 sequence (P00176 whole entry): T7 sequence (P00176 whole entry)

[13] = molecular target: T9, Cytochrome P450 1A2 (Homo sapiens, UniProt P05177); experiment: Mechanism based inhibition of human cytochrome P450 1A2 measured by 7-ethoxyresorufin O-deethylation (EROD)
T9 sequence (P05177 whole entry): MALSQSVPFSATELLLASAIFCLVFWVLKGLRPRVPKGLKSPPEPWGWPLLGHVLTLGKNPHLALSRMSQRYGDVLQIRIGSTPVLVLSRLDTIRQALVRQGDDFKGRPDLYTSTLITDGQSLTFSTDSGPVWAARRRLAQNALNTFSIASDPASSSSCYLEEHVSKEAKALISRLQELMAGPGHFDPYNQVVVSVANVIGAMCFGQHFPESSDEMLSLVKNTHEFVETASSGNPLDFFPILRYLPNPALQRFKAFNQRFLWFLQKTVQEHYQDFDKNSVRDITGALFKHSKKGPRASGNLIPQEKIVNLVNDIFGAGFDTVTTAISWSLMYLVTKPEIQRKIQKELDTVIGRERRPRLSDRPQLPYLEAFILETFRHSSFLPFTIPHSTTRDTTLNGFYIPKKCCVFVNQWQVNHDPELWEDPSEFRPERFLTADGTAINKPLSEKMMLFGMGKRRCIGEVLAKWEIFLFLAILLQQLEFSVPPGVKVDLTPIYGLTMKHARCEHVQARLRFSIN

## CNCCCN1c2ccccc2CCc2ccccc21 [DESIPRAMINE]
[1]
  mechanism based inhibition: Cytochrome P450 mechanistic inhibitor: PMID 14555335

## C/C(=C\COc1c2ccoc2cc2oc(=O)ccc12)CCC(OC(C)(C)C(O)CC/C(C)=C/COc1c2ccoc2cc2oc(=O)ccc12)C(C)(C)O (configuration not stated) [FC726]
[2]
  pKi: 6.89
[3]
  mechanism based inhibition: Cytochrome P450 mechanistic inhibitor: PMID 10859150

## CNCCC(Oc1ccc(C(F)(F)F)cc1)c1ccccc1 (configuration not stated) [FLUOXETINE]
[1]
  mechanism based inhibition: Cytochrome P450 mechanistic inhibitor: PMID 14555335

## COc1ccc2c(c1OC)C(=O)O[C@@H]2[C@H]1c2cc3c(cc2CCN1C)OCO3 [HYDRASTINE]
[4]
  mechanism based inhibition: Cytochrome P450 mechanistic inhibitor: PMID 14570772
[5]
  mechanism based inhibition: Cytochrome P450 mechanistic inhibitor: PMID 14570772

## CNCCC(Oc1ccccc1OC)c1ccccc1 (configuration not stated) [NISOXETINE]
[1]
  mechanism based inhibition: Cytochrome P450 mechanistic inhibitor: PMID 14555335

## CNCCC=C1c2ccccc2CCc2ccccc21 [NORTRIPTYLINE]
[1]
  mechanism based inhibition: Cytochrome P450 mechanistic inhibitor: PMID 1435757; also recorded: Cytochrome P450 mechanistic inhibitor: PMID 14555335
[6]
  pKi: 4.30
[7]
  kinact: 0.0006 s⁻¹

## c1ccc(C2(N3CCCCC3)CCCCC2)cc1 [PHENCYCLIDINE]
[8]
  kinact: 0.000167 s⁻¹
[9]
  pKi: 5.00
[10]; rat
  mechanism based inhibition: Cytochrome P450 mechanistic inhibitor: PMID 9029055

## C=CCC1(C(C)CCC)C(=O)NC(=O)NC1=O (configuration not stated) [SECOBARBITAL]
[11]
  mechanism based inhibition: Cytochrome P450 mechanistic inhibitor: PMID 8728507

## C#CCN(C)[C@H](C)Cc1ccccc1 [SELEGILINE]
[12]
  kinact: 0.00383 s⁻¹
[10]
  pKi: 5.98

## Nc1c2c(nc3ccccc13)CCCC2 [TACRINE]
[13]
  pKi: 5.71
